Source: patent US20110166144A1, “Pyrimidotriazinediones and Pyrimidopyrimidinediones and Methods of Using the Same” (THE REGENTS OF THE UNIVERSITY OF MICHIGAN, priority 2008, published 2011)
Where two headings read alike, the source gives them in different places.

Assays:
β-catenin/TCF complex = assay: cells; type: cell-based
[1] = tested on: IEC18 Rat Epithelial Cells (IEC18-S33Y); details: 17-20 h with compound, WST-1
Procedure: Using the above assay system, IC50 and LD50 values were determined for the pyrimidotriazinedione compounds. IEC18-S33Y cells carrying a β-catenin firefly luciferase cassette and a constitutively active renilla luciferase cassette were seeded at 40,000 cells/well in 96-well tissue culture plates (BD Biosciences, Bedford, Mass.) in a total volume of 80 μL of tissue culture medium (Dulbecco's modified Eagle medium without Phenol-Red (Invitrogen, Carlsbad, Calif.) supplemented with 10% (v/v) fetal bovine serum (Hyclone, Logan, Utah)) and incubated for 24 h. […] Working solutions of the compounds were obtained by further diluting the stock solutions in tissue culture medium by at least 50-fold. Serial twofold dilutions of the working solutions of the compounds were added to the cells in a volume of 40 μL and the cells were incubated in the presence of the compounds for 17-20 h.
LD50 values of the pyrimidotriazinediones then were determined using a WST-1 colorimetric cell proliferation assay. A mixture containing 20 μL of medium and 10 μL of WST-1 reagent (available from Roche, Indianapolis, Ind.) was added to the cells and the cells were incubated for 1 h at 37° C., after which time absorption at 550 nm was measured using a microplate reader.

[2] = Pharmacokinetic properties in mice (plasma level by HPLC/MS); type: in vivo; details: 10 mg/kg, plasma 1 minute to 12 hours post-injection
Procedure: The pharmacokinetic properties of a substituted pyrimido[5,4-e][1,2,4]triazine-5,7(6H,8H)-dione of formula II (3-(4-(2-(Diethylamino)ethoxy)phenyl)-8-(3,4-difluorobenzyl)-6-methylpyrimido[5,4-e][1,2,4]triazine-5,7(6H,8H)-dione) in mice were determined by dosing a cohort of mice with 10 mg/kg compound. Blood was drawn from the mice at various time points (1 minute, 15 minutes, 30 minutes, 3 hours, 6 hours, and 12 hours) post-injection. The blood plasma was isolated from the drawn blood and the amount of compound present in the plasma was measured by HPLC with peak analysis by mass spectrometry.

[3] = Rattus norvegicus, IEC18-S33Y cells, 17-20 h with compound, β-catenin-dependent firefly luciferase with Renilla control, read-out: IC50

| melting point | Structure (SMILES) | IC50 (β-catenin/TCF complex; [3]) [nM] | LD50 [1] [µM] | other results |
| --- | --- | --- | --- | --- |
| 251 to 254 °C | Cn1c(=O)c2nc(-c3ccc(Cl)cc3)nnc2n(Cc2ccccc2F)c1=O |  |  |  |
|  | Cn1c(=O)c2nc(-c3ccc(F)cc3)nnc2n(Cc2ccc(C(C)(C)C)cc2)c1=O [Compound 7h, 8-(4-tert-Butylbenzyl)-3-(4-fluorophenyl)-6-methylpyrimido[5,4-e][1,2,4]triazine-5,7(6H,8H)-dione] | 330 ± 10 |  |  |
|  | Cn1nc(-c2ccc(F)cc2)nc2c(=O)n(C)c(=O)nc1-2 [Compound 5f, 3-(4-Fluorophenyl)-1,6-dimethylpyrimido[5,4-e][1,2,4]triazine-5,7(1H,6H)-dione] | 300 ± 70 | 1.10 ± 0.01 |  |
| 202 to 205 °C | CCCn1c(=O)n(C)c(=O)c2nc(-c3ccc(Cl)cc3)nnc21 |  |  |  |
|  | CCN(CC)CCOc1ccc(-c2nnc3c(n2)c(=O)n(C)c(=O)n3Cc2ccc(F)c(F)c2)cc1 [Compound 10g, 3-(4-(2-(Diethylamino)ethoxy)phenyl)-8-(3,4-difluorobenzyl)-6-methylpyrimido[5,4-e][1,2,4]triazine-5,7(6H,8H)-dione] | 700 ± 130 | 2.57 ± 10.99 | pharmacokinetic properties as assessed by peak plasma level and half-life [2]: favorable pharmacokinetic properties |
|  | Cc1nc2c(=O)n(C)c(=O)nc-2n(C)n1 [Compound 5b, 1,3,6-Trimethylpyrimido[5,4-e][1,2,4]triazine-5,7(1H,6H)-dione] | 1000 ± 190 | 2.02 ± 0.75 |  |
| 223 to 224 °C | Cn1nc(-c2cccc([N+](=O)[O-])c2)nc2c(=O)n(C)c(=O)nc1-2 |  |  |  |
|  | CCN(CC)CCOc1ccc(-c2nc3c(=O)n(C)c(=O)nc-3n(C)n2)cc1 [Compound 5l, 3-(4-(2-(Diethylamino)ethoxy)phenyl)-1,6-dimethylpyrimido[5,4-e][1,2,4]triazine-5,7(1H,6H)-dione] | 16 ± 18 | 0.136 ± 1 |  |
| 230 to 234 °C (dec.) | COc1ccc(-c2nnc3c(n2)c(=O)n(C)c(=O)n3Cc2ccc(F)cc2)cc1 [Compound 7j, 8-(4-Fluorobenzyl)-3-(4-methoxyphenyl)-6-methylpyrimido[5,4-e][1,2,4]triazine-5,7(6H,8H)-dione] |  |  |  |
|  | Cn1nc(-c2ccccc2F)nc2c(=O)n(Cc3ccc(F)c(F)c3)c(=O)nc1-2 [Compound 17e, 6-(3,4-Difluorobenzyl)-3-(2-fluorophenyl)-1-methylpyrimido[5,4-e][1,2,4]triazine-5,7(1H,6H)-dione] | 110 ± 60 | 0.48 ± 0.10 | inhibitory activity of β-catenin-mediated transcription (in words) (β-catenin/TCF complex; IEC18-S33Y cells): antagonized β-catenin-mediated transcription |
|  | Cn1c(=O)nc2n(CCO)nc(-c3ccc(OCCN4CCCC4)cc3)nc-2c1=O [Compound 8f, 1-(2-Hydroxyethyl)-6-methyl-3-(4-(2-(pyrrolidin-1-yl)ethoxy)phenyl)pyrimido[5,4-e][1,2,4]triazine-5,7(1H,6H)-dione] | 1340 ± 150 | 1.55 ± 0.22 |  |
|  | Cn1nc(-c2ccc(Cl)c(Cl)c2)nc2c(=O)n(C)c(=O)nc1-2 [Compound 5j, 3-(3,4-Dichlorophenyl)-1,6-dimethylpyrimido[5,4-e][1,2,4]triazine-5,7(1H,6H)-dione] |  | 30.1 ± 17.54 | IC50 (β-catenin/TCF complex; Rattus norvegicus): 9320 ± 7440 nM |
| 208 to 211 °C (dec.) | Cn1c(=O)nc2n(CCO)nc(-c3ccc(Cl)c(Cl)c3)nc-2c1=O |  |  |  |
| 320 °C (dec.) | Cc1ccc(Cn2c(=O)n(C)c(=O)c3nc(-c4ccccc4F)nnc32)cc1 |  |  |  |
|  | Cc1ccc(-c2nc3c(=O)n(C)c(=O)nc-3n(CCO)n2)cc1 [Compound 8b, 1-(2-Hydroxyethyl)-6-methyl-3-(4-methylphenyl)pyrimido[5,4-e][1,2,4]triazine-5,7(1H,6H)-dione] | 320 ± 230 | 2.55 ± 21.76 |  |
|  | Cn1nc(-c2ccccc2)nc2c(=O)n(C)c(=O)nc1-2 [Compound 5d, 1,6-Dimethyl-3-phenylpyrimido[5,4-e][1,2,4]triazine-5,7(1H,6H)-dione] | 530 ± 100 | 1.39 ± 0.44 |  |
|  | CCc1nc2c(=O)n(C)c(=O)nc-2n(C)n1 [Compound 5c, 3-Ethyl-1,6-dimethylpyrimido[5,4-e][1,2,4]triazine-5,7(1H,6H)-dione] | 1420 ± 250 | 2.94 ± 10 |  |
| 170 to 180 °C (dec.) | CN(C)c1ccc(-c2nc3c(=O)n(C)c(=O)nc-3n(CCO)n2)cc1 [Compound 8i, 3-(4-(Dimethylamino)phenyl)-1-(2-hydroxyethyl)-6-methylpyrimido[5,4-e][1,2,4]triazine-5,7(1H,6H)-dione] |  |  |  |
|  | Cn1nc(-c2ccc(Cl)cc2)nc2c(=O)n(C)c(=O)nc1-2 [Compound 5h, 3-(4-Chlorophenyl)-1,6-dimethylpyrimido[5,4-e][1,2,4]triazine-5,7(1H,6H)-dione] | 1050 ± 290 | 2.84 ± 0.80 |  |

| melting point | Structure (SMILES) | IC50 (β-catenin/TCF complex; [3]) [nM] | LD50 [1] [µM] | other results |
| --- | --- | --- | --- | --- |
|  | Cc1ccc(-c2n[nH]c3nc(=O)n(C)c(=O)c-3n2)cc1 [Compound 6a, 6-Methyl-3-p-tolylpyrimido[5,4-e][1,2,4]triazine-5,7(1H,6H)-dione] | 21100 ± 14100 | >50 |  |
| 215 to 218 °C (dec.) | COc1ccc(-c2nc3c(=O)n(C)c(=O)nc-3n(CCO)n2)cc1OC |  |  |  |
|  | CCN(CC)CCOc1ccc(-c2nnc3c(n2)c(=O)n(C)c(=O)n3Cc2cccc(F)c2)cc1 [Compound 10c, 3-(4-(2-(Diethylamino)ethoxy)phenyl)-8-(3-fluorobenzyl)-6-methylpyrimido[5,4-e][1,2,4]triazine-5,7(6H,8H)-dione] | 23400 ± 2830 | 21.49 ± 10.42 |  |
| 253 to 254 °C | Cn1c(=O)c2nc(-c3ccccc3)nnc2n(Cc2ccc(F)cc2)c1=O |  |  |  |
|  | COc1ccc(-c2nc3c(=O)n(C)c(=O)nc-3n(CCO)n2)cc1 [Compound 8e, 1-(2-Hydroxyethyl)-3-(4-methoxyphenyl)-6-methylpyrimido[5,4-e][1,2,4]triazine-5,7(1H,6H)-5,7-dione] |  | 8.39 ± 10.29 | IC50 (β-catenin/TCF complex; IEC18-S33Y cells, 17-20 h with compound, β-catenin-dependent firefly luciferase with Renilla control, read-out: IC50): 6070 ± 4910 nM |
| 248 to 250 °C | Cn1c(=O)nc2[nH]nc(-c3ccccc3F)nc-2c1=O |  |  |  |
|  | Cn1c(=O)nc2n(CCO)nc(-c3ccccc3)nc-2c1=O [Compound 8a, 1-(2-Hydroxyethyl)-6-methyl-3-phenylpyrimido[5,4-e][1,2,4]triazine-5,7(1H,6H)-dione] | 970 ± 220 | 2.09 ± 0.78 |  |
|  | Cn1nc(-c2ccc(Cl)cc2)[n+]([O-])c2c(=O)n(C)c(=O)nc1-2 | 700 ± 150 | 2.01 ± 2.58 |  |
| 220 to 223 °C | Cn1nc(-c2ccc([N+](=O)[O-])cc2)nc2c(=O)n(C)c(=O)nc1-2 |  |  |  |
| 274 to 280 °C (dec.) | Cn1c(=O)c2nc(-c3ccccc3)nnc2n(Cc2ccc([N+](=O)[O-])cc2)c1=O |  |  |  |
|  | Cn1c(=O)c2nc(-c3ccccc3F)nnc2n(Cc2ccccc2)c1=O [Compound 7d, 8-Benzyl-3-(2-fluorophenyl)-6-methylpyrimido[5,4-e][1,2,4]triazine-5,7(6H,8H)-dione] | 3600 ± 2250 |  |  |
|  | Cn1nc(-c2cccc(Cl)c2)nc2c(=O)n(C)c(=O)nc1-2 [Compound 5i, 3-(3-Chlorophenyl)-1,6-dimethylpyrimido[5,4-e][1,2,4]triazine-5,7(1H,6H)-dione] | 5030 ± 1180 | 23.88 ± 5.17 |  |
| 225 to 227 °C (dec.) | Cn1c(=O)c2nc(-c3ccccc3)nnc2n(Cc2ccc(C(F)(F)F)cc2)c1=O |  |  |  |
|  | Cn1c(=O)nc2n(CCO)nc(-c3ccccn3)nc-2c1=O [Compound 8j, 1-(2-Hydroxyethyl)-6-methyl-3-(pyridin-2-yl)pyrimido[5,4-e]-[1,2,4]triazine-5,7(1H,6H)-dione] | 3810 ± 590 | 9.55 ± 0.001 |  |
|  | Cn1nc(-c2ccccc2)[n+]([O-])c2c(=O)n(C)c(=O)nc1-2 | 490 ± 220 | 1.71 ± 46.77 |  |
| 240 to 247 °C (dec.) | Cn1nc(-c2ccccc2F)nc2c(=O)[nH]c(=O)nc1-2 [Compound 17a, 3-(2-Fluorophenyl)-1-methylpyrimido[5,4-e][1,2,4]triazine-5,7(1H,6H)-dione] |  |  |  |
|  | Cn1nc(-c2ccccc2F)nc2c(=O)n(C)c(=O)nc1-2 [Compound 5g, 3-(2-Fluorophenyl)-1,6-dimethylpyrimido[5,4-e][1,2,4]triazine-5,7(1H,6H)-dione] | 190 ± 14 | 0.71 ± 3.31 |  |
|  | Cn1c(=O)nc2n(CCO)nc(-c3ccc(Cl)cc3)nc-2c1=O [Compound 8c, 3-(4-Chlorophenyl)-1-(2-hydroxyethyl)-6-methylpyrimido[5,4-e][1,2,4]triazine-5,7(1H,6H)-dione] | 4560 ± 8240 | 6.36 ± 21.76 |  |
|  | Cc1ccc(-c2nc3c(=O)n(C)c(=O)nc-3n(C)n2)cc1 [Compound 5e, 1,6-Dimethyl-3-(4-methylphenyl)pyrimido[5,4-e][1,2,4]triazine-5,7(1H,6H)-dione] | 680 ± 90 | 0.84 ± 0.25 |  |
